Assay [1] deals with T1, alpha2A adrenergic receptor (Homo sapiens, UniProt P08913).
T1 sequence (P08913 1-465): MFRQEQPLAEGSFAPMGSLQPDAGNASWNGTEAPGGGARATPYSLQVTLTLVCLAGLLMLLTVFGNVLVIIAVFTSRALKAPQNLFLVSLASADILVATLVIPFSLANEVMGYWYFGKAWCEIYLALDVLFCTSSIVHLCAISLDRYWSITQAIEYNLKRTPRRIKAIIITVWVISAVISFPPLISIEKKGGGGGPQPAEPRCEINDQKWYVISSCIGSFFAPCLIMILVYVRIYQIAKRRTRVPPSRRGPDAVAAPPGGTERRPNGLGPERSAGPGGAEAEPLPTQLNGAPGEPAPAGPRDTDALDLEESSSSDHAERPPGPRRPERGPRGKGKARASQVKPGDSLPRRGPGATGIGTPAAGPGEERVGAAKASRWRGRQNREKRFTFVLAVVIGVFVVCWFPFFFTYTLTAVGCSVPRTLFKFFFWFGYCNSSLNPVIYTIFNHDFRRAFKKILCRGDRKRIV
As to the kind of experiment: Receptor Selection and Amplification Technology (RSAT) assay, alpha2A. Format: cell-based. To be noted: NIH-3T3 cells, agonism, read-out: EC50, Alpha 2A. From the text:
(§1) The imidazole-2-thione compounds of the invention are agonists of alpha2 adrenergic receptors, particularly they tend to be specific or selective agonists of alpha2B and/or to a lesser extent alpha2C adrenergic receptors, in preference over alpha2A adrenergic receptors. […] Al., 1995, Pharmacol. Toxicol. 76, pp. 308-311 (incorporated herein by reference) and is also described below. Another reference pertinent to this assay is Conklin et al. (1993) Nature 363:274-6, also incorporated herein by reference.
(§2) Receptor Selection and Amplification Technology (RSAT) Assay
(§3) The RSAT assay measures a receptor-mediated loss of contact inhibition that results in selective proliferation of receptor-containing cells in a mixed population of confluent cells. The increase in cell number is assessed with an appropriate transfected marker gene such as β-galactosidase, the activity of which can be easily measured in a 96-well format. […]
(§4) NIH-3T3 cells are plated at a density of 2×10^6 cells in 15 cm dishes and maintained in Dulbecco's modified Eagle's medium supplemented with 10% calf serum. […] After washing with phosphate-buffered saline, β-galactosidase enzyme activity is determined by adding 200 μl of the chromogenic substrate (consisting of 3.5 mM o-nitrophenyl-β-D-galactopyranoside and 0.5% nonidet P-40 in phosphate buffered saline), incubating overnight at 30° C. and measuring optical density at 420 nm. […]

Assay [2] deals with T2, alpha2B adrenergic receptor (Homo sapiens, UniProt P18089).
T2 construct: expressed in transfected cells; host or cells: NIH-3T3
T2 sequence (P18089 1-450): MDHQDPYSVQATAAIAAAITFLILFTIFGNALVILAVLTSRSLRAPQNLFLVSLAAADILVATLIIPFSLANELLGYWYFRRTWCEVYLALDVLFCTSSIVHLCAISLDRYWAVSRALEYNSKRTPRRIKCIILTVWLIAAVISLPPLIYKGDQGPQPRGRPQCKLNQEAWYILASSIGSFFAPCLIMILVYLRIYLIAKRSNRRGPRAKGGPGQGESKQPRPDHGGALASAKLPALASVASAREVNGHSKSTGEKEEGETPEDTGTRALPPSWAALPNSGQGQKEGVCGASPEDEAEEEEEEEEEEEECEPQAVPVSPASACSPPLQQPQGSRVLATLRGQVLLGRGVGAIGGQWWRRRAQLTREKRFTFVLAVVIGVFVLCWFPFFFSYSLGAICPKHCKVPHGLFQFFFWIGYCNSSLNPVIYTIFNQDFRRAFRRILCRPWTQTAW
Description: Receptor Selection and Amplification Technology (RSAT) assay, alpha2B. Format: cell-based. To be noted: for EC50: RSAT, NIH-3T3 cells, agonism, read-out: EC50, Alpha 2B; for Emax: fraction of maximal effect of standard agonist brimonidine, read-out: intrinsic activity, Alpha 2B.
Excerpt: as §1, §2
The RSAT assay measures a receptor-mediated loss of contact inhibition that results in selective proliferation of receptor-containing cells in a mixed population of confluent cells. The increase in cell number is assessed with an appropriate transfected marker gene such as β-galactosidase, the activity of which can be easily measured in a 96-well format. Receptors that activate the G protein, Gq, elicit this response. Alpha2 receptors, which normally couple to Gi, activate the RSAT response when coexpressed with a hybrid Gq protein that has a Gi receptor recognition domain, called Gq/i5.
NIH-3T3 cells are plated at a density of 2×10^6 cells in 15 cm dishes and maintained in Dulbecco's modified Eagle's medium supplemented with 10% calf serum. One day later, cells are cotransfected by calcium phosphate precipitation with mammalian expression plasmids encoding p-SV-β-galactosidase (5-10 μg), receptor (1-2 μg) and G protein (1-2 μg). 40 μg salmon sperm DNA may also be included in the transfection mixture. Fresh media is added on the following day and 1-2 days later, cells are harvested and frozen in 50 assay aliquots. Cells are thawed and 100 μl added to 100 μl aliquots of various concentrations of drugs in triplicate in 96-well dishes. Incubations continue 72-96 hr at 37° C. After washing with phosphate-buffered saline, β-galactosidase enzyme activity is determined by adding 200 μl of the chromogenic substrate (consisting of 3.5 mM o-nitrophenyl-β-D-galactopyranoside and 0.5% nonidet P-40 in phosphate buffered saline), incubating overnight at 30° C. and measuring optical density at 420 nm. The absorbance is a measure of enzyme activity, which depends on cell number and reflects a receptor-mediated cell proliferation. The EC50 and maximal effect of each drug at each alpha2 receptor is determined. The efficacy or intrinsic activity is calculated as a ratio of the maximal effect of the drug to the maximal effect of a standard full agonist for each receptor subtype. Brimonidine, also called UK14304, the chemical structure of which is shown below, is used as the standard agonist for the alpha2A, alpha2B and alpha2C receptors. […]

The target in assay [3] is T3, alpha2C adrenergic receptor (Homo sapiens, UniProt P18825).
T3 construct: expressed in transfected cells; host or cells: NIH-3T3
T3 sequence (P18825 1-462): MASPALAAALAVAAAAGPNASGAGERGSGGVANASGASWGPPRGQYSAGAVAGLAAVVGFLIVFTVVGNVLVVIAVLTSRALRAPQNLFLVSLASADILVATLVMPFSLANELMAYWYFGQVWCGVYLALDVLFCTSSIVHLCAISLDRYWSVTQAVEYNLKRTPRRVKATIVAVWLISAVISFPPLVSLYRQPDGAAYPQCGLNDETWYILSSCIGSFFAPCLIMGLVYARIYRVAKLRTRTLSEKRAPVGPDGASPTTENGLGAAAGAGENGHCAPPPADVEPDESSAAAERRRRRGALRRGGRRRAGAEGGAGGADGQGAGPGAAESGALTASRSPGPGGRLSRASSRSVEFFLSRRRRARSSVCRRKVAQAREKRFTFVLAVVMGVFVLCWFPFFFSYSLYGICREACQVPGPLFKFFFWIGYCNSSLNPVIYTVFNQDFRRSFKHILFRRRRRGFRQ
Description: Receptor Selection and Amplification Technology (RSAT) assay, alpha2C. Format: cell-based. To be noted: NIH-3T3 cells, agonism, read-out: EC50, Alpha 2C.
Excerpt: as §1, §2, §3, §4

For assay [4], the system named is rats with surgical ligation of L5 and L6 spinal nerves (tactile allodynia). As to the kind of experiment: Chung model of neuropathic pain (tactile allodynia, von Frey hairs). The assay is classed as in vivo, rat. To be noted: 30 min after dosing. From the text: Alleviation of Chronic Pain
A model in accordance with Kim and Chung 1992, Pain […], pp 355-363 (Chung model), for chronic pain (in particular peripheral neuropathy) involves the surgical ligation of the L5 (and optionally the L6) spinal nerves on one side in experimental animals. Rats recovering from the surgery gain weight and display a level of general activity similar to that of normal rats. However, these rats develop abnormalities of the foot, wherein the hindpaw is moderately everted and the toes are held together. More importantly, the hindpaw on the side affected by the surgery appears to become sensitive to pain from low-threshold mechanical stimuli, such as that producing a faint sensation of touch in a human, within about 1 week following surgery. This sensitivity to normally non-painful touch is called “tactile allodynia” and lasts for at least two months. The response includes lifting the affected hindpaw to escape from the stimulus, licking the paw and holding it in the air for many seconds. None of these responses is normally seen in the control group.
Rats are anesthetized before surgery. The surgical site is shaved and prepared either with betadine or Novacaine. Incision is made from the thoracic vertebra X111 down toward the sacrum. Muscle tissue is separated from the spinal vertebra (left side) at the L4-S2 levels. The L6 vertebra is located and the transverse process is carefully removed with a small rongeur to expose the L4-L6 spinal nerves. The L5 and L6 spinal nerves are isolated and tightly ligated with 6-0 silk thread. The same procedure is done on the right side as a control, except no ligation of the spinal nerves is performed.
A complete hemostasis is confirmed, then the wounds are sutured. A small amount of antibiotic ointment is applied to the incised area, and the rat is transferred to the recovery plastic cage under a regulated heat-temperature lamp. On the day of the experiment, at least seven days after the surgery, typically six rats per test group are administered the test drugs by intraperitoneal (i.p.) injection or oral gavage. For i.p. injection, the compounds are formulated in approximately 10 to 50% DMSO and given in a volume of 1 ml/kg body weight.
Tactile allodynia is measured prior to and 30 minutes after drug administration using von Frey hairs that are a series of fine hairs with incremental differences in stiffness. Rats are placed in a plastic cage with a wire mesh bottom and allowed to acclimate for approximately 30 minutes. The von Frey hairs are applied perpendicularly through the mesh to the mid-plantar region of the rats' hindpaw with sufficient force to cause slight buckling and held for 6-8 seconds. The applied force has been calculated to range from 0.41 to 15.1 grams. If the paw is sharply withdrawn, it is considered a positive response. A normal animal will not respond to stimuli in this range, but a surgically ligated paw will be withdrawn in response to a 1-2 gram hair. The 50% paw withdrawal threshold is determined using the method of Dixon, W. J., Ann. Rev. Pharmacol. Toxicol. 20:441-462 (1980). The post-drug threshold is compared to the pre-drug threshold and the percent reversal of tactile sensitivity is calculated based on a normal threshold of 15.1 grams. The results are expressed in percent (%) MPE, where the MPE value reflects the percentage reversal of pain threshold to that of a normal animal (100%). Table 3 below indicates results of this test with Compounds 1, 7 and 29 of the invention, administered i.p. and in oral doses.

Some results are limits rather than exact numbers.

Consider `Cc1ccc2c(n1)CC(Cc1c[nH]c(=S)[nH]1)CC2` (racemic) [Compound 201, 4-(2-methyl-5,6,7,8-tetrahydro-quinolin-7-ylmethyl)-1,3-dihydro-imidazole-2-thione], for which the figures for the EC50 in assay [1], in assay [2] and in assay [3] were more than 10 µM, 0.113 µM and more than 10 µM, respectively. Moreover, the Emax in assay [2] was 104%. Moreover, the “% Pain Reversal ± SEM” value in assay [4] (10 μg/kg i.p.) is on record as 0.65 ± 0.91%; in assay [4] (30 μg/kg i.p.) it was 42 ± 5.7%; in assay [4] (100 μg/kg i.p.) it was 75.1 ± 5.7%; in assay [4] (100 μg/kg p.o.), 64 ± 7%; in assay [4] (300 μg/kg i.p.) it was 82.5 ± 7.4%.

As for `Cc1ccc2c(n1)CC(Cc1c[nH]c(=S)[nH]1)CC2` (single isomer, unassigned) [Compound 202, 4-(2-methyl-5,6,7,8-tetrahydro-quinolin-7-ylmethyl)-1,3-dihydro-imidazole-2-thione], the values for the EC50 in assay [1], in assay [2] and in assay [3] were more than 10 µM, 0.092 µM and more than 10 µM, respectively. In addition, in assay [2], the Emax was determined as 99%. In addition, the results for the “% Pain Reversal ± SEM” value in assay [4] (30 μg/kg p.o.), in assay [4] (100 μg/kg p.o.) and in assay [4] (300 μg/kg p.o.) were 28 ± 8.5%, 49 ± 7.2% and 75 ± 8.1%, respectively.

(Values after US7276522B2, “4-(substituted cycloalkylmethyl) imidazole-2-thiones, 4-(substituted cycloalkenylmethyl) imidazole-2-thiones, 4-(substituted cycloalkylmethyl) imidazol-2-ones, 4-(substituted cycloalkenylmethyl) imidazol-2-ones and related compounds” (Allergan, Inc., priority 2002, dated 2007).)
